Measurements as given in patent US20220402917A1, “COMPOUND AS SMALL MOLECULE INHIBITOR PD-1/PD-L1 AND APPLICATION THEREOF” (MEDSHINE DISCOVERY INC., priority 2019, published 2022).

Legend:
[1] = target: T1, PD-L1 in MDA-MR-231 cells (Homo sapiens, UniProt Q9NZQ7); assay: Effect on expression level of PD-L1 in MDA-MR-231 cells (FACS); type: cell-based; conditions: 24 hours incubation, FACS detection of cell surface PD-L1
T1 construct: endogenous in cells; host or cells: MDA-MB-231
Experimental: Experimental Example 2: Using MDA-MR-231 Cells to Detect the Effect of Compounds on the Expression Level of PD-L1
The use of a triple-negative breast cancer cell line (MDA-MB-231) is an indirect method to assess PD-L1 endocytosis. PD-L1 molecules on the cell surface can be degraded by lysosomal and proteasome pathways, and small molecule inhibitors are added to induce PD-L1 endocytosis. After co-incubating small molecules with MDA-MB-231 cells for 24 hours, flow cytometry (Fluorescence-activated Cell Sorting, FACS) is used to detect the content of PD-L1 on the cell surface, which can indirectly reflect the effect of small molecule-induced PD-L1 endocytosis. Flow cytometry (FACS) is used to detect the effect of the compounds of the present disclosure on the expression level of PD-L1 in MDA-MR-231 cells.
Phosphate buffer (DPBS), 1640 medium, penicillin-streptomycin, fetal bovine serum, non-essential amino acids, 2-hydroxy-1-ethanethiol (2-ME), human interferon γ, LIVE/DEAD staining solution, staining buffer, fixation buffer, 0.25% trypsin, EDTA, anti-human PD-L1, anti-human PD-L1 isotype.
1640 complete medium preparation: 50 mL of fetal bovine serum, 5 mL of non-essential amino acids, 5 mL of penicillin-streptomycin and 0.5 mL of 2-hydroxy-1-ethanethiol were added to 439.5 mL of 1640 medium, and evenly mixed.
10 mM EDTA preparation: 1 mL of 0.5M EDTA was added to 49 mL of DPBS, and evenly mixed.
1) MDA-MB-231 cell counting and plating: The culture flask was taken out, the medium was removed and the culture flask was rinsed once with DPBS. After the culture flask was rinsed, 3 mL of 0.25% trypsin was added to the culture flask and the culture flask was placed in a 37° C. incubator for 1.5 min. The culture flask was taken out, 9 mL of 1640 complete medium was added to stop the reaction, the cells was transferred to a 50 mL centrifuge tube, and centrifuged at 1000 rpm for 5 min at 37° C. An appropriate volume of medium was added to re-suspend the cells according to the number of cells, and the number of cells was counted with a cell counter. The cell concentration was adjusted to 5×10^5 cells/mL with medium. Planking: A volume of 200 μL of cell suspension was added to each well of a 96-well plate, ensure that the number of cells in each well was 1×10^5. The cells were incubated overnight in an incubator. 2) Drug incubation: 100-fold dilution of compounds were prepared, and the drug was subjected to a 5-fold gradient dilution. 2 μL of each 100-fold dilution of compounds were added to each well. The cells were incubated in an incubator at 37° C. for 24 hours. 3) PD-L1 cell staining and FACS detection: the culture plate was taken out and the supernatant medium was discarded. The cells were washed once with 200 μL 1×PBS. 100 μL of EDTA (final concentration of 10 mM) was added to the cell suspension, and the cell suspension was treated at 37° C. for 10 min. Then after the cell suspension was centrifuged at 1500 rpm for 5 min, the cell suspension was washed once with 200 μL of staining solution. Staining: anti-human PD-L1 (2 μL per well) and LIVE/DEAD staining solution (1:1000) were diluted in staining solution, 50 μL of the staining solution was added to each well, and the staining was conducted at 4° C. for 30 min. Then the solution was washed twice with 200 μL of staining solution. Fixation: 100 μL of fixing solution was added to each well, the fixation was conducted at 4° C. for 15 min. The solution was then washed twice with 200 μL of staining solution, and 150 μL of solution was added to re-suspend the cells, followed by FACS detection.
Table 2 provides the effects of the compounds of the examples of the present disclosure on the expression level of PD-L1 in MDA-MR-231 cells.

PD1/PD-L1 = PD1/PD-L1 (Homo sapiens, UniProt Q9NZQ7); assay: NFAT activity test (TCR Activitor/PD-L1 CHO cells with PD-1/NFAT Reporter-Jurkat cells); type: cell-based; parameters: host or cells: TCR Activitor/PD-L1 CHO cells; PD-1/NFAT Reporter-Jurkat cells; conditions: TCR Activitor/PD-L1 CHO cells + PD-1/NFAT Reporter-Jurkat cells, 5 hours, luciferase; for IC50: read-out: IC50, inhibitory activity on PD1/PD-L1 binding (NFAT activity test)
Sequence of PD1/PD-L1 (Q9NZQ7 19-290): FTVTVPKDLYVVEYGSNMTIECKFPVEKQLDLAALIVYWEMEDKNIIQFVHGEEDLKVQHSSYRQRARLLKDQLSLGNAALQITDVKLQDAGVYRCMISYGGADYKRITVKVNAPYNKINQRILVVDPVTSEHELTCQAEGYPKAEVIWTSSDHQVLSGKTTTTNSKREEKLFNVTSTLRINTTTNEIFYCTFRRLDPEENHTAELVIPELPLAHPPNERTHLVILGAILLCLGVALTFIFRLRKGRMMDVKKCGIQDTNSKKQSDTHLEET
Text: Experimental Example 3: NFAT Activity Test
The engineered T cell expresses PD-1 molecules and T cell receptor (TCR) on the surface, which can activate the NFAT signaling pathway of T cells after co-culturing with engineered antigen presenting cells (APCs). Expression of PD-L1 molecules on APCs can effectively attenuate the NFAT signaling pathway in T cells. PD-L1 inhibitors can be used effectively block the PD-1/PD-L1 regulatory mechanism, thereby reversing the weakened NFAT signaling pathway. After being pretreated with APC, the small molecule is co-cultured with T cells, then the expression of luciferase was detected to indirectly reflect the activation of the NFAT pathway in T cells.
The PD1/PD-L1 NFAT detection kit was purchased from BPS Biosciences. Birght-Glo reagent was purchased from Promega. Nivo multi-label analyzer (PerkinElmer).
The TCR Activitor/PD-L1 CHO cells with a growth confluence of 80% were plated into the plate at 35,000 cells per well and placed in a 37° C. cell culture incubator overnight; the compounds to be tested were diluted 5-fold to the 8th concentration, from 20 μM to 0.25 nM, and the DMSO concentration was 2%, a double-well experiment was set up. The TCR Activitor/PD-L1 CHO cell supernatant was discarded, 50 μl of compound working solution was added to each well, incubated at 37° C. for 30 minutes; after the incubation was completed, 50 μL of PD-1/NFAT Reporter-Jurkat cell suspension with a concentration of 4*10^5 cells/mL was added to each well, incubated at 37° C. for 5 hours. After the incubation was completed, 100 μL Bright-Glo was added to each well, and after mixing, the chemiluminescence signal was detected by a Nivo multi-label analyzer.
Using the equation (sample−Min)/(Max−Min)×100% to convert the raw data into inhibition rate, and the IC50 value can be obtained by curve fitting with four parameters (obtained from log(inhibitor) vs. response—Variable slope mode in GraphPad Prism). Table 3 provides the inhibitory activity of the compounds of the examples of the present disclosure on PD1/PD-L1 binding.

[2] = Pharmacokinetic test in C57BL/6 mice; type: in vivo; conditions: mouse, plasma, male C57BL/6 mice
Experimental: Experimental Example 4: Pharmacokinetic Test
Experimental purpose: To study the pharmacokinetics of compounds in C57BL/6 mice.
Experimental materials: C57BL/6 mice (male, 8 weeks old, body weight 25 g-30 g)
Experimental operation: The pharmacokinetic characteristics of rodents after intravenous (IV) and oral (PO) administration of compounds were tested in standard protocols. In the experiment, the candidate compounds were formulated into 1 mg/mL clear solutions, and administered to mice via a single intravenous injection and oral administration. The vehicle of intravenous and oral administration was 5% DMSO/5% polyethylene glycol 15-hydroxystearate (Solutol)/90% aqueous solution. Four male C57BL/6 mice were used in the experiment, wherein two mice were administered intravenously at a dose of 1 mg/kg, and the plasma samples were collected 0.0833, 0.25, 0.5, 1, 2, 4, 6, 8 and 24 h after administration, the other two mice were given oral gavage at a dose of 10 mg/kg, and the plasma samples were collected 0.25, 0.5, 1, 2, 4, 6, 8, and 24 h after administration. Whole blood samples within 24 hours were collected, centrifuged at 3000 g for 15 minutes, and the supernatant was separated to obtain plasma samples. Acetonitrile solution containing internal standard was added thereto to precipitate proteins, the mixture was thoroughly mixed and centrifuged to obtain the supernatant for injection. The plasma concentration was quantified by LC-MS/MS analysis method, and the pharmacokinetic parameters were calculated, such as peak concentration (Cmax), clearance (CL), half-life (T1/2), […] (Vdss), area under the drug-time curve (AUC0-last), bioavailability (F) and so on.

T1 sequence (Q9NZQ7 19-290): as above

Compound | IC50 [1] [nM] | Maximum effect (induction fold) (PD1/PD-L1) | IC50 (PD1/PD-L1) [nM] | bioavailability ([2]; PO 10 mg/kg vs IV 1 mg/kg, read-out: Bioavailability F) [%] | Cmax ([2]; IV 1 mg/kg, PO 10 mg/kg (route not given for Cmax), read-out: Peak concentration Cmax) [nM] | clearance ([2]; IV 1 mg/kg, read-out: Clearance CL) [mL/min/kg] | half-life ([2]; IV 1 mg/kg, read-out: Half-life T1/2 (IV) (converted)) [h] | Vd ([2]; IV 1 mg/kg, read-out: Tissue distribution Vdss) [L/kg] | AUC(0-t) ([2]; PO 10 mg/kg, read-out: Area under the drug-time curve AUC0-last PO) [µM·h]
COc1nc(-c2cccc(-c3cccc(NC(=O)c4cc(C)c5c(n4)CN(CCO)CC5)c3Cl)c2Cl)cnc1CN1CCC2(CNC(=O)C2)C1 (centres unmarked) [Compound 32] | 5.53 | 4.93 | 52.2 |  |  |  |  |  | 
COc1nc(-c2cccc(-c3cccc(NC(=O)c4nc(C)c5c(n4)CN(CCO)CC5)c3Cl)c2Cl)cnc1CN1CC(O)C1 [Compound 36] | 95.8 | 3.20 | 46.5 |  |  |  |  |  | 
COc1nc(-c2cccc(-c3cccc(NC(=O)c4cc(C)c5c(n4)CN(CCO)CC5)c3Cl)c2Cl)cnc1CNCC1CCC(=O)N1 (centres unmarked) [Compound 38] | 8.86 | 4.40 | 50.8 |  |  |  |  |  | 
COc1nc(-c2cccc(-c3cccc(NC(=O)c4cc(C)c5c(n4)CN(CCO)CC5)c3Cl)c2Cl)cnc1CN1CCCC1CO (centres unmarked) [Compound 40] | 22.5 | 3.72 | 46.1 |  |  |  |  |  | 
COc1nc(-c2cccc(-c3cccc(NC(=O)c4cc(C(F)(F)F)c5c(n4)CN(CCO)CC5)c3Cl)c2Cl)cnc1CN1CC(O)C1 [Compound 46] | 22.6 | 5.56 | 571 |  |  |  |  |  | 
COc1nc(-c2cccc(-c3cccc(NC(=O)c4cc(C)c5c(n4)CN(CCO)CC5)c3C#N)c2Cl)cnc1CN1CC(O)C1 [Compound 47] | 37.2 | 4.01 | 52 |  |  |  |  |  | 
COc1nc(-c2cccc(-c3cccc(NC(=O)c4cc(C)c5c(n4)CN(CCC(C)O)CC5)c3Cl)c2Cl)cnc1CN1CC(O)C1 (centres unmarked) [Compound 49] | 33.8 | 5.30 | 175 |  |  |  |  |  | 
COc1nc(-c2cccc(-c3cccc(NC(=O)c4cc(OCc5cncc(C#N)c5)c5c(n4)CN(CCO)CC5)c3Cl)c2Cl)cnc1CN1CC(O)C1 [Compound 51] | 25.8 | 4.28 | 47.9 |  |  |  |  |  | 

Further compounds by falling IC50 (PD1/PD-L1), results first:

IC50 [1] [nM] | Maximum effect (induction fold) (PD1/PD-L1) | IC50 (PD1/PD-L1) [nM] | bioavailability ([2]; PO 10 mg/kg vs IV 1 mg/kg, read-out: Bioavailability F) [%] | Cmax ([2]; IV 1 mg/kg, PO 10 mg/kg (route not given for Cmax), read-out: Peak concentration Cmax) [nM] | clearance ([2]; IV 1 mg/kg, read-out: Clearance CL) [mL/min/kg] | half-life ([2]; IV 1 mg/kg, read-out: Half-life T1/2 (IV) (converted)) [h] | Vd ([2]; IV 1 mg/kg, read-out: Tissue distribution Vdss) [L/kg] | AUC(0-t) ([2]; PO 10 mg/kg, read-out: Area under the drug-time curve AUC0-last PO) [µM·h] | Compound
 | 4.55 | 45.8 | 63.5 | 221 | 85.5 | 3.72 | 18.3 | 1.66 | COc1nc(-c2cccc(-c3cccc(NC(=O)c4cc(C)c5c(n4)CN(CCO)C5)c3Cl)c2Cl)cnc1CN1CC(O)C1 [Compound 50]
7.81 | 4.37 | 45.4 |  |  |  |  |  |  | COc1nc(-c2cccc(-c3cccc(NC(=O)c4cc(C#N)c5c(n4)CN(CCO)CC5)c3Cl)c2Cl)cnc1CN1CC(O)C1 [Compound 45]
21.9 | 4.09 | 44.7 |  |  |  |  |  |  | COc1nc(-c2cccc(-c3cccc(NC(=O)c4cc(C)c5c(n4)CN(CCO)CC5)c3Cl)c2Cl)cnc1CN[C@H]1C[C@](C)(O)C1 [Compound 34]
5.27 | 3.50 | 29.2 |  |  |  |  |  |  | COc1cc(C(=O)Nc2cccc(-c3cccc(-c4cnc(CN5CC(O)C5)c(OC)n4)c3Cl)c2Cl)nc2c1CCN(CCO)C2 [Compound 41]
8.93 | 3.80 | 21.2 |  |  |  |  |  |  | COc1nc(-c2cccc(-c3cccc(NC(=O)c4cc(OC(F)F)c5c(n4)CN(CCO)CC5)c3Cl)c2Cl)cnc1CN1CC(O)C1 [Compound 48]
6.99 | 4.14 | 18.9 |  |  |  |  |  |  | COc1nc(-c2cccc(-c3cccc(NC(=O)c4cc(C)c5c(n4)CN(CCO)CC5)c3Cl)c2Cl)cnc1CN1CCC(CO)C1 (centres unmarked) [Compound 33]
5.18 | 4.44 | 17.5 |  |  |  |  |  |  | COc1nc(-c2cccc(-c3cccc(NC(=O)c4cc(C)c5c(n4)CN(CCO)CC5)c3Cl)c2Cl)cnc1CN1CC(CO)C1 [Compound 35]
5.52 | 4.62 | 11.9 |  |  |  |  |  |  | COc1nc(-c2cccc(-c3cccc(NC(=O)c4cc(C)c5c(n4)CN(CCO)CC5)c3Cl)c2Cl)cnc1CN1CC2(CC(O)C2)C1 [Compound 39]
